Results on 2 molecules are retold here after patent US11390621B2, “Chiral indole compounds and their use” (ARIAGEN, INC., priority 2019, dated 2022).

Common to all, as to format: in vitro ADME
Data set [1] can be described thus: Hepatocyte intrinsic clearance assay (metabolic stability), rat hepatocytes. Particulars: rat, cryopreserved hepatocytes, Rat Hepatocytes, 1 μM test compound. Summed up:
(§1)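 Cryopreserved pooled hepatocytes (1×10^6 cells/mL final) incubated with 1 μM compound at 37 °C, 5% CO2; samples at 0–120 min quenched in acetonitrile, analysed by LC-MS in duplicate. t1/2 and CLint from ln(% remaining) vs time slope; CLH via well-stirred liver model (fu=1) and EH derived from it.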

Another data set relates to rat hepatocytes. The data set is described as above. Conditions: Rat Hepatocytes; well stirred liver model, fu=1. Summed up:
as §1

Data set [2] can be described thus: CYP profiling: turnover in human liver microsomes, 30 min, no inhibitor. Details: % Compound Metabolized at 30 min, No Inhibitor: concentration or dose not given beside the values. Particulars: HLMs. Here is the method:
(§2) In order to investigate the contributions of CYP1A2 and CYP3A4 to the metabolism of the compounds of the present disclosure, human liver microsomes were incubated with the test compounds for 30 minutes in the presence of selective chemical inhibitors furafylline (1A2) and ketoconazole (3A4).

In a further data set the target is T1, CYP1A2 (Homo sapiens, UniProt P05177).
T1 construct: from tissue; host or cells: human liver microsomes
T1 sequence (P05177 1-516): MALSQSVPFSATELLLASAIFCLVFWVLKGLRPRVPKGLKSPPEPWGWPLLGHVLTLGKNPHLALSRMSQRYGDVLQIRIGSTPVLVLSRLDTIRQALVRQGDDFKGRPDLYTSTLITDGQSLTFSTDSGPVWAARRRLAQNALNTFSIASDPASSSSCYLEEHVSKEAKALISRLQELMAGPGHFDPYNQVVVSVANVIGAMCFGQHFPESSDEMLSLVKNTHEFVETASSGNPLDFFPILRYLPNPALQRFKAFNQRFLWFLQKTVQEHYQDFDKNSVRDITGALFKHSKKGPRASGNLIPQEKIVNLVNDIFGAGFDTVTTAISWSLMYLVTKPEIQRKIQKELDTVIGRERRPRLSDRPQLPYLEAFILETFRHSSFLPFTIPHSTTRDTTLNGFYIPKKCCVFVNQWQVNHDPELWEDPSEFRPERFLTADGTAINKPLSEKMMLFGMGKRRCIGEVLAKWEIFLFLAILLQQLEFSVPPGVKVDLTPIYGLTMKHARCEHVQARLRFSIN
Put plainly: CYP profiling: human liver microsomes with CYP1A2 inhibitor furafylline. Details: % Compound Metabolized at 30 min, CYP1A2 Inhibitor: concentration or dose not given beside the values. Conditions: HLMs; for % Inhibition Relative to Negative Control, 1A2: 30 min. How it is done:
as §2

SMILES strings stand for the structures.

The term half-life denotes the time in which the quantity being followed falls by half. A word on the hepatocyte CLint: it is the capacity of the preparation to metabolise the compound, expressed as a volume cleared per time.

As for `N[C@H](c1csc(C(=O)c2c[nH]c3ccccc23)n1)C(F)(F)F` [ARI-228], in data set [1], the half-life at 1 μM was 6 min and the hepatocyte CLint at 1 μM was 112 µL/min/1e6 cells. For the same molecule, in the data set on rat hepatocytes, the “EH (hepatic extraction ratio)” value is given as 88.2%. Also, in data set [2], the “% Compound Metabolized at 30 min, No Inhibitor” value is on record as 89% and the “metabolic turnover (in words)” value is “high turnover”. For the same molecule, on CYP1A2, the “% Compound Metabolized at 30 min, CYP1A2 Inhibitor” value turned out to be 23% and the “% Inhibition Relative to Negative Control, 1A2” value is on record as 74%.

With `N[C@@H](c1csc(C(=O)c2c[nH]c3ccccc23)n1)C(F)(F)F` [ARI-229], in data set [1], the half-life at 1 μM was 60 min and the hepatocyte CLint at 1 μM was determined as 11.7 µL/min/1e6 cells. Also, the “EH (hepatic extraction ratio)” value in the data set on rat hepatocytes worked out at 43.9%. Moreover, the “% Compound Metabolized at 30 min, No Inhibitor” value in data set [2] was 0%. On CYP1A2, the “% Compound Metabolized at 30 min, CYP1A2 Inhibitor” value was 0% and the “% Inhibition Relative to Negative Control, 1A2” value was “None”.
